From PubChem BioAssay (NCI) come the findings set out here.

Some test systems named below: HOP-18 NSCLC; A549 NSCLC; HCT-116 colon; UACC-62 melanoma; M14 melanoma; OVCAR-3 ovarian; DMS 273 small cell lung; HL-60(TB) leukemia; NCI/ADR-RES ovarian; BT-549 breast.
Common to all, as to test: NCI-60 cell line screen, 48 h

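Cells were grown in 96-well plates and exposed to each compound for 48 hours at five concentrations; endpoints were interpolated linearly between bracketing concentrations, or set to the highest concentration if not reached. GI50 is the concentration that inhibits growth by half. TGI marks complete inhibition of growth.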 Some results are limits rather than exact numbers.

Regarding `CC(C(=O)c1ccccc1)C1(O)C(=O)Nc2ccc(Cl)cc21` (stereo not drawn), the TGI in the assay with HOP-18 NSCLC, with A549 NSCLC, in the assay with HCT-116 colon, with UACC-62 melanoma, with M14 melanoma and in the assay on OVCAR-3 ovarian was more than 100 µM each time.
`Cc1ccc(S(=O)(=O)C2=c3nc4ccccc4cc3=C3C(=O)c4ccccc4C(=O)C32)cc1` (stereo not drawn): the TGI in the assay with DMS 273 small cell lung, with A549 NSCLC, with HCT-116 colon, in the assay with HL-60(TB) leukemia, in the assay on UACC-62 melanoma and with M14 melanoma was more than 100 µM each time. In the assay with OVCAR-3 ovarian, this molecule had a TGI of more than 100 µM.
As for `N/N=C(\c1nc2ccc(Cl)cc2[nH]c1=O)C(O)c1ccc(Cl)c(Cl)c1` (stereo not drawn), the TGI with DMS 273 small cell lung, with A549 NSCLC, with HCT-116 colon, with HL-60(TB) leukemia, with UACC-62 melanoma and in the assay on M14 melanoma was more than 100 µM each time. In the assay with OVCAR-3 ovarian, this molecule returned a TGI of more than 100 µM.
For `NCCNC(=O)c1cccc2cc3ccccc3nc12`, the TGI with DMS 273 small cell lung was more than 100 µM; with HOP-18 NSCLC, more than 40.9 µM; in the assay on A549 NSCLC, more than 100 µM; with HCT-116 colon it was 8.06 µM; in the assay on UACC-62 melanoma, 8.34 µM; in the assay with M14 melanoma it was 11 µM. Moreover, the TGI with OVCAR-3 ovarian amounted to 15.4 µM.
For the molecule `COC(=O)[C@@H](C)[C@H]1CC[C@@](C)(CCC2=C(C)CC3C=C(C)CCC3C2(C)C)OO1` (stereo partly drawn), the TGI with DMS 273 small cell lung came to 4.43 µM; with A549 NSCLC, 3.12 µM; in the assay with HCT-116 colon, 3.81 µM; in the assay on HL-60(TB) leukemia it was 0.449 µM; in the assay on UACC-62 melanoma, 3.86 µM; in the assay with M14 melanoma it was 3.13 µM. Also, in the assay with OVCAR-3 ovarian, the TGI is 3.42 µM.
Consider `CN(C)CCCC1(c2ccc(F)cc2)OCc2cc(-c3cc4ccccc4s3)ccc21` (stereo not drawn), for which the GI50 with A549 NSCLC was 1.73 µM; in the assay with HCT-116 colon, 1.67 µM; in the assay on HL-60(TB) leukemia it was 1.76 µM; in the assay on UACC-62 melanoma, 1.79 µM; with M14 melanoma, 1.59 µM; in the assay on OVCAR-3 ovarian, 1.67 µM. Also, the GI50 in the assay on NCI/ADR-RES ovarian was 1.74 µM; in the assay on BT-549 breast, 2.03 µM. For the same molecule, the TGI in the assay on A549 NSCLC was 3.19 µM; in the assay on HCT-116 colon, 3.22 µM; in the assay on HL-60(TB) leukemia, 3.39 µM; with UACC-62 melanoma it was 3.24 µM; in the assay with M14 melanoma, 3.13 µM; in the assay with OVCAR-3 ovarian, 3.19 µM. For the same molecule, the TGI in the assay on NCI/ADR-RES ovarian was found to be 3.25 µM; in the assay on BT-549 breast, 3.89 µM.
As to `Clc1ccc2nc(CI)c(CI)nc2c1`, the GI50 in the assay with A549 NSCLC is 17.8 µM; with HCT-116 colon it was 2.53 µM; in the assay on HL-60(TB) leukemia, 1.23 µM; with UACC-62 melanoma, 4.73 µM; with M14 melanoma, 3.16 µM; in the assay with OVCAR-3 ovarian, 3.02 µM. The GI50 was 6.8 µM in the assay with NCI/ADR-RES ovarian and 2.11 µM in the assay on BT-549 breast. Further, the TGI in the assay on A549 NSCLC is 38.7 µM; in the assay with HL-60(TB) leukemia it was 9.06 µM; in the assay with UACC-62 melanoma it was 17.2 µM; with M14 melanoma, more than 19.8 µM; in the assay with OVCAR-3 ovarian it was 7.14 µM; in the assay on NCI/ADR-RES ovarian, more than 57.7 µM. The same molecule yielded a TGI in the assay on BT-549 breast of 5.58 µM.
As to `Cn1nc(C(F)(F)F)c(-c2cc(C(F)(F)F)cc(C(F)(F)F)c2)c1-c1ccc(OCc2ccc(Cl)cc2)cc1O`, the GI50 in the assay with A549 NSCLC is 3.18 µM; with HCT-116 colon, 1.62 µM; in the assay with HL-60(TB) leukemia, 2.08 µM; in the assay on UACC-62 melanoma it was 1.45 µM; in the assay with M14 melanoma it was 2.07 µM; with OVCAR-3 ovarian, 2.27 µM. The GI50 in the assay on NCI/ADR-RES ovarian was 2.81 µM; with BT-549 breast it was 1.67 µM. The TGI in the assay on A549 NSCLC is 11.7 µM; in the assay with HCT-116 colon, 3.81 µM; in the assay with HL-60(TB) leukemia, 5.57 µM; in the assay on UACC-62 melanoma, 4.05 µM; in the assay on M14 melanoma, 5.27 µM; with OVCAR-3 ovarian, 10.7 µM. Moreover, the TGI in the assay with NCI/ADR-RES ovarian turned out to be 9.8 µM; in the assay on BT-549 breast it was 3.33 µM.
Turning to `CC1(C)C2CCC1C(=O)[C@@]1(C=CC(=O)CC1)C2` (stereo partly drawn), the TGI with A549 NSCLC, in the assay with HCT-116 colon, with HL-60(TB) leukemia, in the assay on UACC-62 melanoma, with M14 melanoma and in the assay on OVCAR-3 ovarian was more than 100 µM in each case. The TGI with NCI/ADR-RES ovarian and in the assay on BT-549 breast was more than 100 µM each time.
With `N#C/C(=N\Nc1ccccc1)C(=O)Nc1cc(-c2ccccc2)nn1-c1ccccc1`, the GI50 with A549 NSCLC is 2.95 µM; with HCT-116 colon, 2.14 µM; with HL-60(TB) leukemia, 2.94 µM; in the assay with UACC-62 melanoma it was 1.65 µM; with M14 melanoma it was 2.68 µM; with OVCAR-3 ovarian it was 3.24 µM. Besides, the GI50 in the assay with NCI/ADR-RES ovarian is 2.83 µM; in the assay with BT-549 breast, 2.2 µM. For the same molecule, the TGI is more than 100 µM in the assay on A549 NSCLC; more than 100 µM with HCT-116 colon; 22.1 µM in the assay on HL-60(TB) leukemia; more than 100 µM with UACC-62 melanoma; more than 100 µM in the assay on M14 melanoma; 33.2 µM in the assay with OVCAR-3 ovarian. For the same molecule, the TGI with NCI/ADR-RES ovarian is 30.2 µM; in the assay on BT-549 breast, 6.47 µM.
With `OC12c3ccccc3C1CCCCCCCCCC21OCCO1` (stereo not drawn), the TGI in the assay with DMS 273 small cell lung, in the assay on HOP-18 NSCLC, in the assay on A549 NSCLC, with HCT-116 colon, in the assay on UACC-62 melanoma and in the assay on M14 melanoma was more than 100 µM throughout. In the assay on OVCAR-3 ovarian, the TGI was more than 100 µM.
On to `CCCCCC[C@@H](C)NC(=O)c1ccc(Nc2nc3ccccc3c3occc23)cc1`, for which the GI50 with A549 NSCLC was 3.17 µM; in the assay with HCT-116 colon it was 1.92 µM; in the assay on HL-60(TB) leukemia, 5.14 µM; in the assay on UACC-62 melanoma, 32.8 µM; in the assay with M14 melanoma it was 2.23 µM; in the assay with OVCAR-3 ovarian, 2.88 µM. For the same molecule, the figures for the GI50 in the assay with NCI/ADR-RES ovarian and in the assay with BT-549 breast were 2.53 µM and 2.35 µM, respectively. Also, the TGI in the assay on A549 NSCLC is more than 100 µM; in the assay with HCT-116 colon, 11.3 µM; in the assay with HL-60(TB) leukemia it was more than 100 µM; with UACC-62 melanoma, more than 100 µM; in the assay on M14 melanoma, 8.3 µM; with OVCAR-3 ovarian it was more than 100 µM. Also, the TGI is more than 100 µM in the assay on NCI/ADR-RES ovarian and 7.61 µM in the assay with BT-549 breast.
